Key:
[1] = target: T1, human β-N-acetylhexosaminidase B (HsHexB) (Homo sapiens, UniProt P07686); test: Enzyme inhibitory activity test against HsHexB (4-MU-GlcNAc substrate, end-point fluorescence; Dixon plots for Ki); assay type: biochemical; details: pH 4.5; for inhibition at 100 µM: 100 μM inhibitor, 40 μM 4-MU-GlcNAc, 30°C, 30 min, read-out: Inhibition rate at 100 μM (%) HsHexB; for Ki: Dixon plots, 4-MU-GlcNAc 40, 20, 10 μM
T1 construct: made in house; host or cells: Pichia pastoris
T1 sequence (P07686 122-556): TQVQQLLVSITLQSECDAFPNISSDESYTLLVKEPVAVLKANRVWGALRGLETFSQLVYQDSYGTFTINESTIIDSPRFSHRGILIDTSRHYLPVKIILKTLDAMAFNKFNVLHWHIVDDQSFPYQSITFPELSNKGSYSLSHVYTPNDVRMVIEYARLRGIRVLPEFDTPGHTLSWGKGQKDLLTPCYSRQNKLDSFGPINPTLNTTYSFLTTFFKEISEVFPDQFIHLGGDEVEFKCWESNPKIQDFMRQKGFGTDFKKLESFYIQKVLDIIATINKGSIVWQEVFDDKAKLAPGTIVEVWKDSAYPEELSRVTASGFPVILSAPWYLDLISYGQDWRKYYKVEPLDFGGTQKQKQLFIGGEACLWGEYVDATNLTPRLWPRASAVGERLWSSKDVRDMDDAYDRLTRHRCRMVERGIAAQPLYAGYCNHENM
Method: (§1) Human O-GlcNAcase (hOGA) was expressed in Escherichia coli BL21(DE3) and purified according to previous methods (Kong et al., [2016]). Human β-N-acetylhexosaminidase B (HsHexB) was overexpressed in Pichia pastoris and then purified as described previously (Shen et al., [2018a]).
(§2) All target compounds were evaluated for their inhibitory activities against hOGA and HsHexB in end-point experiments. 4-Methylumbelliferyl N-acetyl-β-D-glucosaminide (4-MU-GlcNAc) was used as substrate. In a final assay volume of 100 μL, inhibitor and substrate (40 μM) were mixed with Britton-Robinson buffer (hOGA, pH 6.5; HsHexB, pH 4.5) and enzyme; then, the assay components were incubated at 30°C for 30 min. Subsequently, the enzymatic reaction was terminated by the addition of 100 μL 0.5 M Na2CO3 solution. The fluorescence of the liberated 4-methylumbelliferone (Mu) was quantified at an excitation of 366 nm and emission of 445 nm on a Varioskan Flash microplate reader (Thermo Fisher Scientific, USA). To determine the inhibition constant (Ki), Dixon plots were performed by changing the concentration of the 4-MU-GlcNAc (40, 20, and 10 μM).

human O-GlcNAcase (hOGA) = target: T2, human O-GlcNAcase (hOGA) (Homo sapiens, UniProt O60502); test: Enzyme inhibitory activity test against hOGA (4-MU-GlcNAc substrate, end-point fluorescence; Dixon plots for Ki); assay type: biochemical; details: for inhibition at 100 µM: 100 μM inhibitor, 40 μM 4-MU-GlcNAc, 30°C, 30 min, read-out: Inhibition rate at 100 μM (%) hOGA; for inhibition at 100 µM / Ki: pH 6.5; for Ki: Dixon plots, 4-MU-GlcNAc 40, 20, 10 μM
T2 construct: made in house; host or cells: Escherichia coli BL21(DE3)
T2 sequence (O60502 1-916): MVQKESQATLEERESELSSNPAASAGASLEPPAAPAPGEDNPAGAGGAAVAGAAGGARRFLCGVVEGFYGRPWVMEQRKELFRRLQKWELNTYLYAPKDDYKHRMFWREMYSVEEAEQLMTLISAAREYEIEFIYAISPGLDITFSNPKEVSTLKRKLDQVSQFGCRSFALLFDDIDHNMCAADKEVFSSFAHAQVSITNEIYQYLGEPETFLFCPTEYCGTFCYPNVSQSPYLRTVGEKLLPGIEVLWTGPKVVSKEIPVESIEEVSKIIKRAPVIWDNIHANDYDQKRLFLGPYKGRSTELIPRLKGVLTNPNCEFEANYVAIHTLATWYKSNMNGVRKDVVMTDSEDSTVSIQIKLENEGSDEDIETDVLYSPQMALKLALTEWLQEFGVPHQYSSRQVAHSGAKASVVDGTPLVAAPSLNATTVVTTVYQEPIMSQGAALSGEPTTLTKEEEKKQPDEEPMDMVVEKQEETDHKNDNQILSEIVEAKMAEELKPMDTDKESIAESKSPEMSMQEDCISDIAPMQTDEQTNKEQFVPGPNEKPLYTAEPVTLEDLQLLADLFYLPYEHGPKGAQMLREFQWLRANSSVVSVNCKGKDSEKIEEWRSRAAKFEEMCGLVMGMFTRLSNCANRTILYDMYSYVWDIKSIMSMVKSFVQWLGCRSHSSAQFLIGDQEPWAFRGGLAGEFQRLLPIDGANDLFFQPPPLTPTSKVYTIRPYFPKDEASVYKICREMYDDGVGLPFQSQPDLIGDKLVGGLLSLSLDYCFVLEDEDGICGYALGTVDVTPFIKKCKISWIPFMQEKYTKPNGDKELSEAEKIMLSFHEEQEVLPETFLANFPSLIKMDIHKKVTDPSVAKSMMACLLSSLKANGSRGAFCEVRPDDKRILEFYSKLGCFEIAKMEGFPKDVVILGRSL
Method: as §1, §2

HsHex = details: Thiamet-G; ref Yuzwa et al., 2008; read-out: Ki against HsHex; cited from earlier work

CCCC(=O)N[C@@H]1[C@@H](O)[C@H](O)[C@@H](CO)O[C@H]1SCC(=O)NCCCN1C(=O)c2cccc3c(N4CCCCC4)ccc(c23)C1=O [Compound 16e]
inhibition at 100 µM [1]: 24.6 ± 1.5%
Ki [1]: > 100 µM
inhibition at 100 µM (human O-GlcNAcase (hOGA)): 78.9 ± 1.9%
Ki (human O-GlcNAcase (hOGA)): 12.8 ± 0.27 µM

CNC(=O)N[C@@H]1[C@@H](O)[C@H](O)[C@@H](CO)O[C@H]1SCC(=O)NCCCN1C(=O)c2cccc3c(Br)ccc(c23)C1=O [Compound 17c]
inhibition at 100 µM [1]: 40.7 ± 0.7%
Ki [1]: > 100 µM
inhibition at 100 µM (human O-GlcNAcase (hOGA)): 96.7 ± 1.6%
Ki (human O-GlcNAcase (hOGA)): 2.17 ± 0.13 µM

CCCNC(=O)N[C@@H]1[C@@H](O)[C@H](O)[C@@H](CO)O[C@H]1SCC(=O)NCCCN1C(=O)c2cccc3c(N4CCCCC4)ccc(c23)C1=O [Compound 17b]
inhibition at 100 µM [1]: 22.7 ± 0.2%
Ki [1]: > 100 µM
inhibition at 100 µM (human O-GlcNAcase (hOGA)): 66.3 ± 0.6%
Ki (human O-GlcNAcase (hOGA)): 13.83 ± 0.02 µM

CNC(=O)N[C@@H]1[C@@H](O)[C@H](O)[C@@H](CO)O[C@H]1SCC(=O)NCCCN1C(=O)c2cccc3c(N4CCCCC4)ccc(c23)C1=O [Compound 16h]
inhibition at 100 µM [1]: 25.2 ± 0.3%
Ki [1]: > 100 µM
inhibition at 100 µM (human O-GlcNAcase (hOGA)): 85.5 ± 1.5%
potency against hOGA reduced (human O-GlcNAcase (hOGA); 16h (NHCH3) compared to 16d (CH2CH3)): about 4 fold
Ki (human O-GlcNAcase (hOGA)): 6.6 ± 0.22 µM

CCNC(=O)N[C@@H]1[C@@H](O)[C@H](O)[C@@H](CO)O[C@H]1SCC(=O)NCCCN1C(=O)c2cccc3c(Br)ccc(c23)C1=O [Compound 17d]
inhibition at 100 µM [1]: 26.3 ± 1.1%
Ki [1]: > 100 µM
inhibition at 100 µM (human O-GlcNAcase (hOGA)): 83.5 ± 0.9%
Ki (human O-GlcNAcase (hOGA)): 7.11 ± 0.01 µM
decrease in inhibitory activity against hOGA (human O-GlcNAcase (hOGA); NHC2H5 (17a or 17d) compared to NHCH3 (16h or 17c)): 2 to 3 fold

CC(=O)N[C@@H]1[C@@H](O)[C@H](O)[C@@H](CO)O[C@H]1SCC(=O)NCCCN1C(=O)c2cccc3c(N(C)C)ccc(c23)C1=O [Compound 10c]
inhibition at 100 µM [1]: 36.9 ± 0.2%
Ki [1]: > 100 µM
inhibition at 100 µM (human O-GlcNAcase (hOGA)): 84.4 ± 1.7%
Ki (human O-GlcNAcase (hOGA)): 9.72 ± 0.49 µM

O=C(CS[C@@H]1O[C@H](CO)[C@@H](O)[C@H](O)[C@H]1NC(=O)C(F)(F)F)NCCCN1C(=O)c2cccc3c(Br)ccc(c23)C1=O [Compound 16o]
inhibition at 100 µM [1]: 37.7 ± 0.9%
Ki [1]: > 100 µM
inhibition at 100 µM (human O-GlcNAcase (hOGA)): 90.9 ± 0.2%
Ki (human O-GlcNAcase (hOGA)): 4.62 ± 0.18 µM

CC(=O)N[C@@H]1[C@@H](O)[C@H](O)[C@@H](CO)O[C@H]1SCC(=O)NCCCN1C(=O)c2cccc3c(Br)ccc(c23)C1=O [Compound 10a]
inhibition at 100 µM [1]: 36.5 ± 0.8%
Ki [1]: > 100 µM
inhibition at 100 µM (human O-GlcNAcase (hOGA)): 98.7 ± 0.3%
Ki (human O-GlcNAcase (hOGA)): 0.61 ± 0.02 µM
increase in potency against hOGA (human O-GlcNAcase (hOGA); compared to lead compound 2 (Ki)): ~6 fold
inhibitory mechanism toward hOGA (human O-GlcNAcase (hOGA); kinetic studies via Dixon plots): competitive inhibitors

CC(C)C(=O)N[C@@H]1[C@@H](O)[C@H](O)[C@@H](CO)O[C@H]1SCC(=O)NCCCN1C(=O)c2cccc3c(Br)ccc(c23)C1=O [Compound 16n]
inhibition at 100 µM [1]: 37 ± 0.4%
Ki [1]: > 100 µM
inhibition at 100 µM (human O-GlcNAcase (hOGA)): 87.8 ± 0.4%
Ki (human O-GlcNAcase (hOGA)): 6.92 ± 0.1 µM

CCNC1=N[C@@H]2[C@@H](O)[C@H](O)[C@@H](CO)O[C@@H]2S1 [Thiamet-G]
Ki (HsHex): 750 µM

O=C(CS[C@@H]1O[C@H](CO)[C@@H](O)[C@H](O)[C@H]1NC(=O)c1ccc(F)cc1)NCCCN1C(=O)c2cccc3c(Br)ccc(c23)C1=O [Compound 16k]
inhibition at 100 µM [1]: 48.5 ± 1.7%
Ki [1]: > 100 µM
inhibition at 100 µM (human O-GlcNAcase (hOGA)): 48 ± 0.9%
Ki (human O-GlcNAcase (hOGA)): > 100 µM
